Results reported in the OPERA property sets (Mansouri et al. 2018).

With `CCCCCCCCOC(=O)CCCCCCC` the boiling point was 307 °C and the melting point was -18.1 °C.

`CCCCCOc1ccccc1` gave a boiling point of 200 °C.

`CC(=O)c1ccc(O[C@@H]2O[C@H](CO)[C@@H](O)[C@H](O)[C@H]2O)cc1` gave a melting point of 196 °C.

`CC(CO)Oc1ccccc1` (stereo not given) showed a boiling point of 244 °C.

`CN(C1CCCCC1)C1CCCCC1` gave a boiling point of 265 °C.

For `O=[N+]([O-])c1cccc(S(=O)(=O)O)c1`, the ready biodegradability was “not readily biodegradable”.

Work on `CC(C)C(N)=O` yielded a boiling point of 218 °C and a melting point of 128 °C.

`O=C(O)c1c2ccccc2cc2ccccc12` gave a log10 Koc (L/kg) of 2.74.

`CCOP(=S)(NC(C)C)Oc1ccccc1C(=O)OC(C)C` (stereo not given) showed a log10 Koc (L/kg) of 2.78, a log10 vapour pressure (mmHg) of -5.52 and a melting point of -12 °C. The log10 BCF (fish) was 2.12 and the log10 biotransformation half-life (days) (fish) was -0.51.

In the case of `O=C1C(=O)c2ccccc2C(Cl)=C1Cl`, the melting point is reported as 184 °C.

`CCC1(c2ccccc2)C(=O)N(COC)C(=O)N(COC)C1=O` showed a melting point of 117 °C.

Work on `C=CC(C)(C)CC` yielded a boiling point of 77.5 °C, a log10 vapour pressure (mmHg) of 2.02 and a melting point of -134 °C.

`O=CC=Cc1ccco1` gave a melting point of 54 °C.

Molecule `Oc1ccc2ccccc2c1Br` has a melting point of 84 °C.

In the case of `CC[Si](Cl)(Cl)Cl`, the boiling point is reported as 100 °C, the log10 vapour pressure (mmHg) is reported as 1.67 and the melting point is reported as -106 °C.

For `Oc1cc(O)c2ccccc2c1`, the melting point was 124 °C.

In the case of `CCOC(=O)c1cccc(O)c1`, the melting point is reported as 74 °C and the ready biodegradability is reported as “readily biodegradable”.

For `O=CC1CCCC1`, the boiling point was 134 °C.

Work on `CC(C)(C)CC(C)(C)S` yielded a boiling point of 160 °C, a log10 vapour pressure (mmHg) of 0.716 and a melting point of -74 °C.

For `Cc1c(O)cccc1O`, the boiling point was 264 °C, the melting point was 120 °C and the ready biodegradability was “not readily biodegradable”.

For `CCOc1nc(F)cc2nc(S(=O)(=O)Nc3c(Cl)cccc3C(=O)OC)nn12`, the melting point was 217 °C.

`C/C=C(\C)C(=O)O` showed a boiling point of 198 °C, a log10 vapour pressure (mmHg) of -0.875 and a melting point of 64.5 °C.

Molecule `C[C@]12CCC(=O)C=C1CC[C@@H]1[C@@H]2CC[C@@]2(C)[C@H]1CC[C@]2(C)O` has a melting point of 163 °C.

`Clc1cccc(-c2cc(Cl)c(Cl)c(Cl)c2Cl)c1Cl` gave a log10 Henry constant (atm·m³/mol) of -4.54.

For `CC(C)=CCCC(C)=CC(=O)O`, the boiling point was 250 °C.

Work on `CCCCCCC(=O)Cl` yielded a boiling point of 145 °C, a log10 vapour pressure (mmHg) of -0.35 and a melting point of -83.8 °C.

For `CCCCCCCCCCCCCCCC[N+](C)(C)C.[Br-]`, the melting point was 240 °C.

Molecule `O=C(O)/C(F)=C/c1ccccc1` has a boiling point of 290 °C and a melting point of 158 °C.

`CC(C=NO)=NO` gave a melting point of 157 °C.

Molecule `COc1c(C(C)(C)C)cc([N+](=O)[O-])c(C)c1[N+](=O)[O-]` has a melting point of 85 °C.

Work on `Oc1nc2ccccc2s1` yielded a boiling point of 360 °C and a melting point of 139 °C.

In the case of `Cc1cccc(C)n1`, the boiling point is reported as 144 °C, the log10 Henry constant (atm·m³/mol) is reported as -4.98 and the log10 vapour pressure (mmHg) is reported as 0.752. It also gave a melting point of -6.1 °C.

Work on `FC=C(F)Br` yielded a boiling point of 19 °C.

Work on `CC(C)CB(CC(C)C)CC(C)C` yielded a boiling point of 188 °C and a melting point of -88 °C.

In the case of `COC(=O)c1cc(Cl)ccc1[N+](=O)[O-]`, the melting point is reported as 48.5 °C.

Molecule `CSCSC` has a boiling point of 148 °C.

For `CCOc1ccc(C=O)cc1OCC`, the boiling point was 279 °C and the melting point was 22 °C.

Molecule `CCOC(=O)c1cncn1C(C)c1ccccc1` (stereo not given) has a melting point of 67 °C.

`C1=Cc2cc3ccc(cc4nc(cc5ccc(cc1n2)[nH]5)C=C4)[nH]3` gave a melting point of 360 °C.

Molecule `C=CCSSSC` has a log10 vapour pressure (mmHg) of -1.3.

Molecule `CN(C)C(CSC(N)=O)CSC(N)=O.Cl` has a melting point of 180 °C.

Work on `CC(C)CN(CCO)CC(C)C` yielded a boiling point of 214 °C.

`CCC(CC)c1ccccc1` gave a boiling point of 188 °C.

In the case of `O=C(O)CN(CC(=O)O)CC(=O)O`, the ready biodegradability is reported as “not readily biodegradable”.

In the case of `CCCCC(Cl)CC` (stereo not given), the boiling point is reported as 144 °C.

Work on `CNC(=O)O/N=C1\[C@@H](Cl)[C@@H]2C[C@H](C#N)[C@H]1C2` yielded a melting point of 144 °C.

With `NCCCc1ccccc1` the boiling point was 221 °C.

Work on `CCCCC#CCCCCC` yielded a boiling point of 198 °C and a melting point of -74.1 °C.

`COCCOCCOCCOCCOC` gave a boiling point of 275 °C.

In the case of `Cc1cccc(OP(=O)(Oc2cccc(C)c2)Oc2cccc(C)c2)c1`, the log10 Henry constant (atm·m³/mol) is reported as -4.08, the melting point is reported as 25.5 °C and the ready biodegradability is reported as “readily biodegradable”.

With `BrC1CCCC1` the boiling point was 138 °C.

With `Cc1ccc(C(N)=O)cc1` the log10 Koc (L/kg) was 1.78 and the melting point was 162 °C.

Molecule `CNC(=O)Oc1cccc(C(C)C)c1` has a melting point of 73 °C.

Work on `Cc1cc(C)n(C)n1` yielded a boiling point of 170 °C.

Work on `OCCN1CCN(CCO)CC1` yielded a melting point of 135 °C.

`CCNCCO` showed a boiling point of 170 °C.

Work on `O=C(O)CC(CC(=O)O)C(=O)O` yielded a melting point of 166 °C.

Molecule `CCCCCCCCC=CCCCCCCCC(=O)Nc1ccccc1` has a melting point of 41 °C.

`CC(Cc1ccccc1)NC(C#N)c1ccccc1` (stereo not given) gave a melting point of 86 °C.

For `O=S(=O)(O)C(F)(F)F`, the boiling point was 166 °C and the log10 vapour pressure (mmHg) was -1.

Work on `CC(N)c1ccccc1` (stereo not given) yielded a boiling point of 185 °C and a log10 BCF (fish) of 0.82.

`CCCCCCCCCCCCCCCCCCOO` showed a melting point of 49.5 °C.

In the case of `N#CC1=C(C#N)C(=O)C(Cl)=C(Cl)C1=O`, the melting point is reported as 214 °C.

`N[C@@H](CCC(=O)N[C@@H](CS)C(=O)NCC(=O)O)C(=O)O` showed a melting point of 195 °C.

`Cc1ccc(C(=O)O)c([N+](=O)[O-])c1O` gave a melting point of 186 °C.

Work on `CC(=O)Nc1ccc(OC(=O)c2ccccc2O)cc1` yielded a melting point of 187 °C.

For `O=C(O)C1C(C(=O)O)C2(Cl)C(Cl)=C(Cl)C1(Cl)C2(Cl)Cl` (stereo not given), the log10 Koc (L/kg) was 2.79, the melting point was 209 °C and the ready biodegradability was “not readily biodegradable”. It also gave a log10 BCF (fish) of 0.32.

Work on `CC(C)CCC[C@@H](C)[C@H]1CC[C@H]2[C@@H]3CC=C4C=CCC[C@]4(C)[C@H]3CC[C@]12C` yielded a melting point of 80 °C.

`O=S(=O)(O)NC1CCCCC1` showed a melting point of 170 °C.

For `CN(C)C(=S)Sc1ccc([N+](=O)[O-])cc1[N+](=O)[O-]`, the melting point was 152 °C.

Work on `O=Cc1ccc(CO)o1` yielded a melting point of 31.5 °C.

Work on `c1ccc2cnccc2c1` yielded a boiling point of 243 °C, a log10 vapour pressure (mmHg) of -1.16 and a melting point of 26.5 °C.

For `N[C@@H](Cc1cc(I)c(Oc2cc(I)c(O)c(I)c2)c(I)c1)C(=O)O`, the melting point was 236 °C.
